# Measurements reported in PubChem BioAssay (NCI).
#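 A five-concentration, 48-hour dose response in 96-well plates underlies each endpoint, interpolated linearly between surrounding concentrations. Here, GI50 denotes the concentration required for 50% inhibition of growth. The concentration for full growth arrest is given as TGI.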
# System: COLO 205 colon
# Assay: growth of human tumour cells (NCI), 48 h
SMILES,GI50,TGI
COc1ccc(-c2nnc3n(C)c(=O)c4ccccc4n23)cc1N,0.0469 µM,4.44 µM
CN(C)C1CCN(C(=O)c2ccc(NC(=O)Nc3ccc(-c4nc(N5CCOCC5)c5cccn5n4)cc3)cc2)CC1,0.0535 µM,1.42 µM
COc1cc(N=Nc2ccc(O)c3ncccc23)c2ncccc2c1,5.65 µM,> 100 µM
Cc1nc(Nc2cccnc2)sc1C(=O)/C=C/c1ccc(F)cc1,2.81 µM,8.86 µM
N=c1c2c(-c3ccccc3)c(-c3ccccc3)n(Cc3ccccc3)c2ncn1C1CCC(O)CC1 (stereo unspecified),0.417 µM,2.23 µM
O=C(Nc1cccc(Cl)c1)C(=O)C(C(=O)c1ccc2ccccc2c1)C1OC(=O)c2ccccc21 (stereo unspecified),,38.1 µM
O=c1c(F)cn(Cc2ccc(C34CC5CC(CC(C5)C3)C4)c(O)c2)c(=O)n1Cc1ccc(C23CC4CC(CC(C4)C2)C3)c(O)c1,18 µM,37.5 µM
COCC(OC)C(CC=C(C#N)C#N)OC (stereo unspecified),,> 100 µM
NC1CCN(Cc2ccccc2)CC1,> 100 µM,> 100 µM
N#Cc1nn(-c2cc(=O)[nH]c3ccc(Cl)cc23)c(N)c1C#N,59.3 µM,> 100 µM
On1c(-c2ccccc2)c(-c2ccccc2N2CCCC2)c2ccccc21,,> 100 µM
CCN1CCN(c2cc(C)c3cc(NC(=O)c4ccc(OC)c(OC)c4)ccc3n2)CC1,3.23 µM,> 37.6 µM
COC(=O)c1c2c(c(C)[n+]([O-])c1C)C(=O)C=C(NCc1ccc(F)cc1)C2=O,0.301 µM,0.97 µM
CC(C)C1=Cc2ccc3c(c2C(=O)C1=O)CCCC3(C)C,,14.5 µM
Nc1ncn([C@@H]2O[C@H](CO)[C@@H](O)[C@H]2O)c(=O)n1,1.21 µM,3.02 µM
CSc1nc(SC)c2c(C#N)[nH]nc2n1,,> 100 µM
CC(=O)Nc1ccc(-c2csc(Nc3cccc(-c4csc(C)n4)c3)n2)cc1,1 µM,> 50 µM
COc1ccc(CCN(C)C2CCC(C#N)(c3ccc(OC)c(OC)c3)CC2)cc1OC (stereo unspecified),,91.4 µM
C=CCC1(c2ccc(OC)cc2)C=CC(=O)CC1 (stereo unspecified),,> 100 µM
CCOC(=O)c1nc2c(OC)nn(O)cc-2c1[N+](=O)[O-],,61.9 µM
C/C(CC(=O)Nc1ccc(C)c(C)c1)=N\N(c1ccccc1)c1ccccc1,,34.6 µM
COC(=O)/C(=N\NC(N)=S)C(C(=O)OC)C(=O)C(=O)Nc1ccc(C)cc1 (stereo unspecified),,> 100 µM
O=C(OC1CCC(=C2SCCCS2)[C@H]1C1SCCCS1)c1ccccc1 (stereo partly specified),,> 100 µM
O=C(/C(=C/c1ccc(Cl)cc1)c1ccccc1)c1ccccc1,,33 µM
c1ccc2c(OCCSCCCCCCCCCCSCCOc3cccc4ccccc34)cccc2c1,,> 100 µM
CN1CCC(=O)/C(=C/c2ccccc2)C1,,28.3 µM

# System: EKVX NSCLC
# Assay: growth of human tumour cells (NCI), 48 h
SMILES,GI50,TGI
CC1(C)OC2C(CO[Si](C)(C)C(C)(C)C)OC(n3c(I)c(C#C[Si](C)(C)C)c(=O)[nH]c3=O)C2O1 (stereo unspecified),59.6 µM,> 100 µM
CN(C)CC[C@H](CSc1ccccc1)Nc1ccc(S(=O)(=O)NC(=O)c2ccc(N3CCN(Cc4ccccc4-c4ccc(Cl)cc4)CC3)cc2)cc1[N+](=O)[O-],3.32 µM,> 100 µM
COc1ccc(-c2ccc(=O)oc2C#Cc2cc(OC)c(OC)c(OC)c2)cc1O,1.38 µM,> 100 µM
O=C(/C=C/c1ccc[nH]1)c1ccc(-n2ccc(C(F)(F)F)n2)cc1,> 100 µM,> 100 µM
O=C(c1ccco1)c1c(C(F)(F)F)nc2ccc(Cl)cc2[n+]1[O-],56.8 µM,> 100 µM
COc1ccc(-c2nnc3n(C)c(=O)c4ccccc4n23)cc1N,5.87 µM,> 100 µM
CN(C)C1CCN(C(=O)c2ccc(NC(=O)Nc3ccc(-c4nc(N5CCOCC5)c5cccn5n4)cc3)cc2)CC1,0.0702 µM,3.46 µM
COc1cc(N=Nc2ccc(O)c3ncccc23)c2ncccc2c1,4.08 µM,> 100 µM
CCOC(=O)N[C@H]1CCc2cc(OC)c(OC)c(OC)c2-c2ccc(SC)c(=O)cc21,< 0.01 µM,> 100 µM
